pIC50: −log10 of the molar value. Marks after values point to notes of the source that are not given here.
Key:
NAD(P)H oxidase = experiment: IL-8 production inhibitory effect in HUVEC cultured with 44 mM glucose; format: cell-based, human; conditions: for inhibitory rate (%) of IL-8 production: 8 days
Description: NAD(P)HOxidase Inhibitory Effect (Method)
44 mM glucose was added to Human Umbilical Vein Endothelial Cells (Bio Whittaker, hereinafter to be indicated as “HUVEC”), and cells were cultured for 8 days. Then, a lysis buffer containing a surfactant, Triton-X Nonidet P-40, was added, and interleukin-8 (hereinafter to be indicated as “IL-8”) in the cell lysate, which had been produced by NAD(P)H oxidase was measured by an enzyme-linked […]. The test compound was added one day before glucose addition.
The inhibitory rate was calculated from the following formula: inhibitory rate (%)=100−[(A−C)/(B−C)]×100
wherein A is IL-8 production of a cell cultured in the presence of 44 mM glucose with addition of the test compound, B is IL-8 production of a cell cultured in the presence of 44 mM glucose without addition of the test compound, and C is IL-8 production of a cell cultured in the absence of 44 mM glucose and the test compound. The IC50 value was calculated from the dose-effect line drawn by the least squares method based on the obtained inhibitory rate.

[1] = test system: atherosclerosis rabbit model; experiment: Atherosclerosis inhibitory effect in cholesterol-fed rabbits; format: in vivo; conditions: for lipid-deposition area (%), abdominal aorta / lipid-deposition area (%), thoracic aorta: 12 weeks, 0.67% cholesterol feed; for lipid-deposition area (%), abdominal aorta / lipid-deposition area (%), thoracic aorta / Plasma lipid concentration TC: mean ± standard error; for Plasma lipid concentration TC: 12 weeks from cholesterol-loading
Description: A 0.67% cholesterol-containing feed (40 g/kg/day) and compound A were given to male NZW rabbits (Japan SLC) for 12 weeks. Blood was drawn from the auricular vein using a heparinized capillary tube, and centrifuged at 3000 rpm for 10 min. The total cholesterol (hereinafter to be indicated as “TC”) value of the obtained plasma was measured by an enzyme assay using a measurement kit.
After 12 weeks, the carotid artery was peeled and removed with pentobarbital anesthesia, and exsanguinated to remove the aorta. The obtained carotid artery was immediately placed in Krebs buffer, the surrounding tissues were carefully removed, and the ring specimen was prepared trying not to damage endothelial cells. Then, the ring specimen was suspended in a Magnus tank filled with Krebs buffer at 37° C. under an air flow of 95% O2-5% CO2 mixed gas. The experiment was conducted after reaching a steady state by loading 2 g tension.
For the measurement of a relaxation response, the specimen was contracted in advance with norepinephrine, and when the contraction reached steady state, acetylcholine was cumulatively added. The vascular relaxation rate was determined based on the contraction induced by 10 μM norepinephrine as 100%.
Using a transducer (NIHON KOHDEN), tension was measured isometrically. The significant difference was tested for by variance analysis with two-way layout (Dunnett's method) relative to the control group.
The removed aorta was divided into arch aorta, thoracic aorta and abdominal aorta, fixed with 10% formalin buffer, photographed, the area of the lipid adhered to the aorta was measured and the proportion of the area of the lipid-deposition area relative to the area of aorta was determined.

[2] = test system: rabbit chronic myocardial infarction (heart failure) model; experiment: Rabbit chronic myocardial infarction (heart failure) model; format: in vivo
Description: Male NZW rabbits (Japan SLC) were fixed in the dorsal position and subjected to thoracotomy with pentobarbital anesthesia. A silk thread (No. 4) was applied to the basal part of the left coronary artery, a polyethylene tube (length 1 cm) was further applied and the left coronary artery was ligated using a thread. After 2 hr from the ligation, the thread on the polyethylene tube was cut to reperfusion. At 2 hr from the reperfusion, compound A (1 mg/kg) was administered once, and administered once a day for 12 weeks. After 12 weeks, an excess pentobarbital was administered, the heart was removed, and the weight thereof and the thickness of the left ventricle center wall were measured.
The compound was evaluated by the mortality rate, heart weight and thickness of left ventricle.

[3] = test system: rat acute myocardial infarction model; experiment: Rat left coronary artery-ligated myocardial infarction model; format: in vivo
Excerpt: Male SD rats (Japan SLC) were fixed in the dorsal position with ether anesthesia, and subjected to thoracotomy by vertical incision along the left sternal line according to the method by Selye H. et al. (Angiology, 1960, 11, 398) to expose the heart. The left coronary artery was ligated using a silk thread (No. 4) at 1-2 mm from the basal part, the heart was put back in place and quickly deaerated, and the chest was closed. The rat was confirmed to have myocardial infarction with an electrocardiograph (NIHON KOHDEN). The rat was exsanguinated to death from the abdominal aorta 24 hr after ligation. The heart was removed, and a circular cross-section at the center thereof was incubated in a solution of 1% 2,3,5-triphenyltetrazolium chloride (hereinafter to be indicated as “TTC”) in 0.1 M phosphate buffer for 20 min under light shielding. Thereafter, the section was fixed with formalin buffer, traced, and the areas of infarction region (TTC unstained region) and left ventricle were calculated. Immediately after coronary artery ligation, compound A was suspended in 1% CMC solution and orally administered to the rat.
The inhibitory rate was calculated by the following formula: [formula] [formula]
In addition, compound A (1 mg/kg) was orally administered at 15 min, 1 hr and 3 hr after ligation, and infarction inhibitory effect was examined.

[4] = test system: NAD(P)H oxidase in diabetic rat aorta; experiment: Aorta NAD(P)H oxidase inhibitory effect, test compound added to aorta ring specimen in vitro; format: biochemical; conditions: for chemiluminescence (×10^5 RLU/wet weight of aorta): mean ± standard error
Description: This ring specimen was preincubated in Krebs-Hepes buffer containing the test compound (compound A, compound B or DPI (SIGMA)) at 37° C. for 10 min, and then transferred to Krebs-Hepes buffer containing 0.25 mM lucigenin. […] The total value of chemiluminescence was calculated from AUC of the curve drawn by plotting the chemiluminescence value (vertical axis) relative to the measurement time (horizontal axis). The obtained chemiluminescence value was divided by the wet weight of the vascular ring specimen and standardized to the superoxide anion production per aorta unit weight.

[5] = 1 mg/kg once a day for 12 weeks
[6] = 1 mg/kg once a day, deaths/animals
[7] = 0.1 mg/kg oral immediately after coronary artery ligation, 24 hr
[8] = 0.3 mg/kg oral immediately after coronary artery ligation, 24 hr
[9] = 1 mg/kg oral immediately after coronary artery ligation, 24 hr
[10] = 1 mg/kg oral, 15 min after ligation
[11] = 1 mg/kg oral, 1 hr after ligation
[12] = 1 mg/kg oral, 3 hr after ligation
[13] = 0.1 μM added to aorta ring in vitro
[14] = 1 μM added to aorta ring in vitro

Which results are given for `C[C@@H](Nc1nnc(-c2ccccc2)c2ccccc12)C1CCCCC1.O=C(O)/C=C\C(=O)O` [compound A]?
pIC50 (NAD(P)H oxidase; from dose-effect line by least squares): 8.20; inhibitory rate (%) of IL-8 production (NAD(P)H oxidase; test compound concentration 0.01 μM): 39.5%; inhibitory rate (%) of IL-8 production (NAD(P)H oxidase; test compound concentration 0.1 μM): 59.8%; inhibitory rate (%) of IL-8 production (NAD(P)H oxidase; test compound concentration 1 μM): 74%; lipid-deposition area (%), abdominal aorta ([1]; 1 mg/kg): 25.4 ± 6.2 %; lipid-deposition area (%), thoracic aorta ([1]; 1 mg/kg): 62.1 ± 10.0 %; Plasma lipid concentration TC ([1]; 1 mg/kg): 1895.3 ± 244.6 mg/dL; lipid-deposition area (%), abdominal aorta ([1]; 10 mg/kg): 18.2 ± 2.2 %; lipid-deposition area (%), thoracic aorta ([1]; 10 mg/kg): 56.5 ± 10.5 %; Plasma lipid concentration TC ([1]; 10 mg/kg): 1887.9 ± 103.9 mg/dL; endothelial-dependent relaxation response of carotid artery by Ach ([1]; Ach 10^−8 to 10^−5 M, FIG. 1, result in words): significantly improved as compared to the control group; mortality rate ([2]; 1 mg/kg once a day): 8%; heart weight (g/kg body weight) [2, 5]: 2.05* g/kg body weight; thickness (mm) of left ventricle [2, 5]: 1.17* mm; cumulative mortality, 2 weeks after ligation [2, 6]: 0/12; cumulative mortality, 4 weeks after ligation [2, 6]: 1/12; infarction rate (%) [3, 7]: 40%; inhibitory rate (%) of infarction [3, 7]: 0%; infarction rate (%) [3, 8]: 17.2** %; inhibitory rate (%) of infarction [3, 8]: 57** %; infarction rate (%) [3, 9]: 6.3** %; inhibitory rate (%) of infarction [3, 9]: 84.3** %; infarction rate (%) [3, 10]: 10.5** %; inhibitory rate (%) of infarction [3, 10]: 73.8%; infarction rate (%) [3, 11]: 16.7** %; inhibitory rate (%) of infarction [3, 11]: 58.3%; infarction rate (%) [3, 12]: 29.3* %; inhibitory rate (%) of infarction [3, 12]: 26.8%; inhibitory rate (%) [4, 13]: 2.2%; chemiluminescence (×10^5 RLU/wet weight of aorta) [4, 13]: 9.1 ± 1.7 ×10^5 RLU/wet weight of aorta; inhibitory rate (%) [4, 14]: 1.1%; chemiluminescence (×10^5 RLU/wet weight of aorta) [4, 14]: 9.2 ± 1.7 ×10^5 RLU/wet weight of aorta; NAD(P)H oxidase inhibitory effect on aorta ring in vitro ([4]; result in words): did not show an NAD(P)H oxidase inhibitory effect
